Test results as given in the supplement of paper PMC10307832.

Experiments:
Test in all cases: relative viability (nuclei count vs DMSO), 5 days (fraction); higher = more cells survive
[1] = compound: Cn1cc(-c2cnc3ccc4ccc(CS(=O)(=O)NCc5ccccn5)cc4c(=O)c3c2)cn1 [MK-8033] + CC(=O)c1c(C)c2cnc(Nc3ccc(N4CCNCC4)cn3)nc2n(C2CCCC2)c1=O [Palbociclib] (partner 0.5 µM)
How it was run: (§1)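 For relative viability, nuclei counts in treated wells were divided by those in vehicle wells. Lung cancer cell lines had been pin-tool dosed in 1536-well plates the day after seeding and cultured for 5 days, then fixed and stained in one step (final 0.05% Triton X-100, 1% formaldehyde, 1 ug/ml Hoechst) and imaged at 4×. Doses were one drug alone or a fixed anchor-drug dose plus five library-drug doses (not always all listed) in √10 steps, and values are duplicate-plate medians.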

[2] = compound: Cn1cc(-c2cnc3ccc4ccc(CS(=O)(=O)NCc5ccccn5)cc4c(=O)c3c2)cn1 [MK-8033] + COc1cccc2cc(-c3nc([C@H]4CC[C@H](C(=O)O)CC4)n4ncnc(N)c34)[nH]c12 [OSI-027] (partner 0.5 µM)
How it was run: as §1

[3] = compound: CC[C@@H](C)CNCC(=O)N1CCC2=C([C@@H]1COC3=CC=CC(=C3)C)C=CS2 [RU-SKI 43] + C[C@@H](Oc1cc(-c2cnn(C3CCNCC3)c2)cnc1N)c1c(Cl)ccc(F)c1Cl [Crizotinib] (partner 1 µM)
How it was run: as §1

[4] = compound: Cn1cc(-c2cnc3ccc4ccc(CS(=O)(=O)NCc5ccccn5)cc4c(=O)c3c2)cn1 [MK-8033] + Nc1nc2[nH]cc(CCc3ccc(C(=O)N[C@@H](CCC(=O)O)C(=O)O)cc3)c2c(=O)[nH]1 [Pemetrexed] (partner 0.2 µM)
How it was run: as §1

Cell Line UMC-11 has a relative viability ([1]; first compound 0.02 µM) of 0.329, a relative viability ([1]; first compound 0.06325 µM) of 0.337 and a relative viability ([1]; first compound 0.2 µM) of 0.3. The relative viability ([1]; first compound 0.6325 µM) was 0.35, the relative viability ([1]; first compound 2 µM) was 0.343 and the relative viability ([2]; first compound 0.02 µM) was 0.483. It also gave a relative viability ([2]; first compound 0.06325 µM) of 0.447, a relative viability ([2]; first compound 0.2 µM) of 0.381 and a relative viability ([2]; first compound 2 µM) of 0.457. The relative viability ([3]; first compound 0.1 µM) was 0.763, the relative viability ([3]; first compound 0.3162 µM) was 0.707 and the relative viability ([3]; first compound 1 µM) was 0.664. The relative viability ([3]; first compound 3.162 µM) was 0.654, the relative viability ([3]; first compound 10 µM) was 0.399 and the relative viability ([4]; first compound 0.02 µM) was 0.801. For the same cell line, the relative viability ([4]; first compound 0.06325 µM) was 0.75, the relative viability ([4]; first compound 0.2 µM) was 0.66 and the relative viability ([4]; first compound 0.6325 µM) was 0.815. The relative viability ([4]; first compound 2 µM) was 0.683.
